Experimental data reported in ChEMBL document CHEMBL1146814, “Amidine derived 1,3-diazabuta-1,3-dienes as potential antibacterial and antifungal agents” (2004).
Calls of active or inactive are those of the source. The calls are words filed in the database; no cut-off is given here.

Assays:
Pseudomonas aeruginosa [1] = experiment: Antibacterial activity against Pseudomonas aeruginosa MTCC 1034. measured through zone of inhibition; 21-25 mm; type: functional
Bacillus subtilis [2] = experiment: Antibacterial activity against Bacillus subtilis MTCC 121 measured through zone of inhibition; 16-20 mm; type: functional
Aspergillus niger [3] = experiment: Antifungal activity against Aspergillus niger MTCC 404 measured through zone of inhibition; 11-15 mm; type: functional
Candida albicans [4] = experiment: Antifungal activity against Candida albicans MTCC 183 measured through zone of inhibition; 11-15 mm; type: functional
Escherichia coli [5] = experiment: Antibacterial activity against Escherichia coli MTCC 42 measured through zone of inhibition; 21-25 mm; type: functional
Bacillus cereus [6] = experiment: Antibacterial activity against Bacillus cereus MTCC 1272 measured through zone of inhibition; 11-15 mm; type: functional
Staphylococcus aureus [7] = experiment: Antibacterial activity against Staphylococcus aureus MTCC 1430 measured through zone of inhibition; 16-20 mm; type: functional
Pseudomonas aeruginosa [8] = experiment: Antibacterial activity against Pseudomonas aeruginosa MTCC 1034. measured through zone of inhibition; 16-20 mm; type: functional
Staphylococcus aureus [9] = experiment: Antibacterial activity against Staphylococcus aureus MTCC 1430 measured through zone of inhibition; 21-25 mm; type: functional
Bacillus cereus [10] = experiment: Antibacterial activity against Bacillus cereus MTCC 1272 measured through zone of inhibition; 21-25 mm; type: functional
Aspergillus niger [11] = experiment: Antifungal activity against Aspergillus niger MTCC 404 measured through zone of inhibition; inactive; type: functional, organism-based
Aspergillus niger [12] = experiment: Antifungal activity against Aspergillus niger MTCC 404 measured through zone of inhibition; Inactive; type: functional, organism-based
Bacillus cereus [13] = experiment: Antibacterial activity against Bacillus cereus MTCC 1272 measured through zone of inhibition; 16-20 mm; type: functional
Candida albicans [14] = experiment: Antifungal activity against Candida albicans MTCC 183 measured through zone of inhibition; Inactive; type: functional, organism-based
Bacillus cereus [15] = experiment: Antibacterial activity against Bacillus cereus MTCC 1272 measured through zone of inhibition; Inactive; type: functional, organism-based
Bacillus subtilis [16] = experiment: Antibacterial activity against Bacillus subtilis MTCC 121 measured through zone of inhibition; Inactive; type: functional, organism-based
Pseudomonas aeruginosa [17] = experiment: Antibacterial activity against Pseudomonas aeruginosa MTCC 1034. measured through zone of inhibition; Inactive; type: functional, organism-based
Escherichia coli [18] = experiment: Antibacterial activity against Escherichia coli MTCC 42 measured through zone of inhibition; Inactive; type: functional, organism-based
Staphylococcus aureus [19] = experiment: Antibacterial activity against Staphylococcus aureus MTCC 1430 measured through zone of inhibition; Inactive; type: functional, organism-based
Candida albicans [20] = experiment: Antifungal activity against Candida albicans MTCC 183 measured through zone of inhibition; inactive; type: functional, organism-based
Candida albicans [21] = experiment: Antifungal activity against Candida albicans MTCC 183 measured through zone of inhibition; 16-20 mm; type: functional
Bacillus subtilis [22] = experiment: Antibacterial activity against Bacillus subtilis MTCC 121 measured through zone of inhibition; 21-25 mm; type: functional
Staphylococcus aureus [23] = experiment: Antibacterial activity against Staphylococcus aureus MTCC 1430 measured through zone of inhibition; 11-15 mm; type: functional

Compound	Zone of inhibition (Bacillus subtilis [2]) [mm]	Zone of inhibition (Aspergillus niger [3]) [mm]	Zone of inhibition (Escherichia coli [5]) [mm]	Zone of inhibition (Pseudomonas aeruginosa [8]) [mm]	Zone of inhibition (Staphylococcus aureus [9]) [mm]	Zone of inhibition (Bacillus cereus [13]) [mm]	Zone of inhibition (Candida albicans [14])	other results
CS/C(=N\C(=N\c1ccc(Cl)cc1)c1ccccc1)N1CCCCC1	16	11	21	–	–	–	–	Zone of inhibition (Pseudomonas aeruginosa [1]): 21 mm; Zone of inhibition (Candida albicans [4]): 11 mm; Zone of inhibition (Bacillus cereus [6]): 11 mm; Zone of inhibition (Staphylococcus aureus [7]): 16 mm
CCS/C(=N\C(=N\c1ccccc1)c1ccccc1)N1CCCCC1	16	–	21	16	21	–	–	Zone of inhibition (Bacillus cereus [10]): 21 mm; Zone of inhibition (Candida albicans [4]): 11 mm; Zone of inhibition (Aspergillus niger [11]): inactive
CS/C(=N\C(=N\c1ccc(C)cc1)c1ccccc1)N1CCCCC1	16	–	21	16	21	16	inactive	Zone of inhibition (Aspergillus niger [12]): inactive
C[S+](C)[O-]	–	–	–	–	–	–	inactive	Zone of inhibition (Aspergillus niger [12]): inactive; Zone of inhibition (Bacillus cereus [15]): inactive; Zone of inhibition (Bacillus subtilis [16]): inactive; Zone of inhibition (Pseudomonas aeruginosa [17]): inactive; Zone of inhibition (Escherichia coli [18]): inactive; Zone of inhibition (Staphylococcus aureus [19]): inactive
CS/C(=N\C(=N\c1ccccc1)c1ccccc1)N1CCCCC1	16	–	25	16	–	16	–	Zone of inhibition (Candida albicans [20]): inactive; Zone of inhibition (Aspergillus niger [11]): inactive; Zone of inhibition (Staphylococcus aureus [7]): 16 mm
CCCCS/C(=N\C(=N\c1ccc(C)cc1)c1ccccc1)N1CCCCC1	16	11	21	–	21	16	–	Zone of inhibition (Pseudomonas aeruginosa [1]): 21 mm; Zone of inhibition (Candida albicans [21]): 16 mm
O=C(O)c1cn(C2CC2)c2cc(N3CCNCC3)c(F)cc2c1=O [CIPROFLOXACIN]	–	–	21	16	21	16	–	Zone of inhibition (Bacillus subtilis [22]): 21 mm
CCS/C(=N\C(=N\c1ccc(C)cc1)c1ccccc1)N1CCCCC1	–	11	21	16	–	16	inactive	Zone of inhibition (Bacillus subtilis [22]): 21 mm; Zone of inhibition (Staphylococcus aureus [23]): 11 mm
